Test results reported in patent US20110123470A1, “NATURAL BIOACTIVE COMPOUNDS” (Aquapharm Bio-Discovery Ltd., priority 2007, published 2011).
Values after ≈ are worked out from the molar mass of the structure shown.

Tests used:
MRSA = assay: Antimicrobial activity against MRSA; format: cell-based
[1] = tested on: anti-oxidant response element (ARE); assay: Antioxidant elicitation assay (ARE-driven luciferase activity) in reporter cell line ARE32; format: cell-based; settings: ARE32 cells
Protocol: The cell line ARE32 was incubated with eight concentrations of P1639C and the positive control tert-butylhydroquinone (tBHQ) for 24 hours, and the luciferase activity measured (Luciferase Assay System, Promega). P1639C enhanced induction of ARE-driven luciferase activity up to 18-fold (at a concentration of 30 μM) (FIG. 2b) compared with normal cells without any oxidative induction.
The ARE comparison was also carried out between p1639C (5-hexyl-2(5H)-furanone), 4-decanolide (5-hexyl-2(3H)-furanone) and 2(5H)-furanone.

Malassezia furfur = assay: Antifungal activity assay (MIC) in PDA media; format: cell-based; settings: for M. furfur (MIC): PDA media containing 0.2% yeast extract
Protocol: (§1) Candida albicans and Malassezia furfur were used to carry out the antifungal assay in Potato Dextrose Agar (PDA) media containing 0.2% yeast extract. The Minimum Inhibitory Concentration (MIC) was recorded (Table 1).

Candida albicans = assay: Antifungal activity assay (MIC) in PDA media; format: cell-based; settings: for C. albicans (MIC): PDA media containing 0.2% yeast extract
Protocol: as §1

mammalian cell culture = assay: Cell viability (resazurin) coupled with the NFκB assay; format: cell-based; settings: concentrations of the NF-κB assay
Protocol: (§2) Anti-inflammatory assay was carried out based on the NFκB expression and IKKβ activity. NFκB expression was tested using PRINCESS® NINA NFκB Assay Kit. P1639C and other related lactone compounds were supplemented to a mammalian cell culture in which NFκB has been stimulated by TNF-α. The assay was also coupled with an in vitro cell toxicity assay. IKKβ was tested using 5-20 mU of IKKβ, which was diluted in 50 mM Tris (pH 7.5), 0.1 mM EGTA, 1 mg/ml BSA, 0.1%, b-Mercaptoethanol. The kinase is assayed against substrate peptide (LDDRHDSGLDSMKDEEY) in a final volume of 25.5 μl containing 50 mM Tris (pH 7.5), 0.1 mM EGTA, 0.1%, b-Mercaptoethanol, 300 μM substrate peptide, 10 mM magnesium acetate and 0.005 mM [33P-g-ATP] (500-1000 cpm/pmole) and incubated for 30 mins at room temperature. Assays are stopped by addition of 50 of 0.5M (3%) orthophosphoric acid. The phosphorylated peptide was harvested on a p81 filterplate and the phosphorylation level was measured by scintillation counts.
Cell viability was carried out by incubation of the cells with resazurin and measuring the absorption at 600 nm against a reference measurement of above 650 nm.

IKKβ = biological target: T1, IKKβ (Homo sapiens, UniProt O14920); assay: IKKβ kinase assay (33P phosphorylation of substrate peptide); format: biochemical; settings: 50 μM
T1 sequence (O14920 1-756): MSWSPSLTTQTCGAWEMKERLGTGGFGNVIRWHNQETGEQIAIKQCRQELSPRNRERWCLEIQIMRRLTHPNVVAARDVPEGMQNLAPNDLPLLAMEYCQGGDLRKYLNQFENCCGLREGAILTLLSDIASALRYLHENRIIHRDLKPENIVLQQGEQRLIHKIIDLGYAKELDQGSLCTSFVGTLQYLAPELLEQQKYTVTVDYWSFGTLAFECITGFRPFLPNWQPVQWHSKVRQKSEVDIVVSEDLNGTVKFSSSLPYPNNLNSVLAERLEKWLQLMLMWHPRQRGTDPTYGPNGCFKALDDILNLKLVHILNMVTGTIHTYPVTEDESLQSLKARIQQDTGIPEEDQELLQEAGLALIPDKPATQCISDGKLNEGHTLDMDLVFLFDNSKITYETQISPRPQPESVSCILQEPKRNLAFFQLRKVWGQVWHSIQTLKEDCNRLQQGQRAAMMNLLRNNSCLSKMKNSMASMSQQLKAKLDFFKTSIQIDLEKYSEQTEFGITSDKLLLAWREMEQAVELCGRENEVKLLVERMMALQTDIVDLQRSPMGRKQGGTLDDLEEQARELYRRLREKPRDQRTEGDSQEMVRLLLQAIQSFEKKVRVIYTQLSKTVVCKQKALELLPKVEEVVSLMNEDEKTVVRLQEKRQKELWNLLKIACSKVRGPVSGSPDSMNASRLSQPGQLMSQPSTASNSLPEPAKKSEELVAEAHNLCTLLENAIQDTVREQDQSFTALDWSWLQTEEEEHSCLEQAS
Protocol: as §2

NF-κB = assay: Anti-inflammatory assay: NFκB activity in TNF-α stimulated mammalian cell culture (PRINCESS NINA NFκB Assay Kit); format: cell-based
Protocol: as §2
P1639C was supplemented to the mammalian cell culture with a series of concentration at 0.001 mM, 0.002 mM, 0.005 mM, 0.01 mM, 0.02 mM, 0.05 mM, 0.1 mM, 0.2 mM and 0.5 mM. SEAP provided in the Princess NINA kit was used as a stimulatory control to show normal inflammatory response in cells, whereas BAY11-7082 at a final concentration of 5 μM was used as the positive control of inhibited NF-κB activity. The cell with TNF-α was used as the negative control. The cell response to the supplemented compounds was measured by the 450 nm emission (360 nm excitation) after addition of inactivation buffer and MUP solution.

Protocol for human hepatocytes: The toxicology assay was carried out using an in vitro human hepatocytes model where human hepatocytes were exposed to varying concentrations of compound [MUT] as well as tamoxifen and chlorpromazine for three hours.

SMILES	M. furfur (MIC) (Malassezia furfur) [µg]	C. albicans (MIC) (Candida albicans) [µg]	MRSA (antimicrobial activity) (MRSA) [µg]	depletion of intracellular ATP (level of toxicity) (human hepatocytes)	also measured
O=C1C=CCO1 [2(5H)-furanone]	>10	>10	>20	–	anti-oxidant elicitation effect (ARE-driven gene expression) ([1]; comparison of FIG. 8): did not show significant anti-oxidant elicitation effects
CN(C)CCCN1c2ccccc2Sc2ccc(Cl)cc21 [chlorpromazine]	–	–	–	moderate decreasing rate of intracellular ATP level	–
CC/C(=C(\c1ccccc1)c1ccc(OCCN(C)C)cc1)c1ccccc1 [tamoxifen]	–	–	–	moderate decreasing rate of intracellular ATP level	–

Further lines, with some results ahead:

M. furfur (MIC) (Malassezia furfur) [µg]	C. albicans (MIC) (Candida albicans) [µg]	SMILES	MRSA (antimicrobial activity) (MRSA) [µg]	depletion of intracellular ATP (level of toxicity) (human hepatocytes)	also measured
5 to 6	5 to 7	CC1=CCOC1=O [3-methy1-2(5H)-furanone]	>20	–	–
5 to 7	5 to 7	CC1=CCC(=O)O1 [5-methyl-2(3H)-furanone]	>20	–	–
5 to 7	5 to 7	CC1C=CC(=O)O1 (stereo not drawn) [5-methyl-2(5H)-furanone]	>20	–	–
<1	1 to 1.5	CCCCCCC1C=CC(=O)O1 (stereo not drawn) [P1639C, 5-hexylfuran-2(5H)-one]	>10	significant ATP depletion was not observed	cytotoxicity against the testing cells (mammalian cell culture): no significant cytotoxicity; IKKβ phosphorylation activity decreased to (IKKβ): 64%±2%; induction of ARE-driven luciferase activity ([1]; 30 μM, 24 hours, compared with normal cells without oxidative induction): up to 18 fold; NF-κB inhibition activity, comparison with known butenolides (NF-κB; 0.05 mM): the only active compound; inhibition of NF-κB mediated inflammatory response (NF-κB; 0.5 mM): almost fully inhibited; IC50 (NF-κB; TNF-α elicited response = 100%, read-out: concentration inhibiting 50% of the NF-κB mediated inflammatory response): 20 µM; MIC (Malassezia furfur; Malassezia furfur, read-out: MIC against M. furfur): 0.8 µg/mL (≈ 4.76 µM); MIC (Candida albicans; Candida albicans, read-out: MIC against C. albicans): 1 to 1.5 µg/mL (≈ 5.94 to 8.92 µM)
